These results are taken from article PMC4558140, “Irreversible dual inhibitory mode: the novel Btk inhibitor PLS-123 demonstrates promising anti-tumor activity in human B-cell lymphoma” (Oncotarget, 2015).

For the assay, the target named is Btk (Homo sapiens, UniProt Q06187). Briefly: crystal structure of human Btk in complex with PLS-123 (Figure 1B); IC50 also stated; Western blot of p-Tyr223/p-Tyr551 Btk in cells. The assay is classed as binding. An excerpt: crystal structure of human Btk in complex with PLS-123 (Figure 1B); IC50 also stated; Western blot of p-Tyr223/p-Tyr551 Btk in cells on Btk | Crystal structure of the human Btk in complex with PLS-123.
Background: In western blotting, separated proteins are transferred to a membrane and probed.

Chain of Btk (Q06187 2-659): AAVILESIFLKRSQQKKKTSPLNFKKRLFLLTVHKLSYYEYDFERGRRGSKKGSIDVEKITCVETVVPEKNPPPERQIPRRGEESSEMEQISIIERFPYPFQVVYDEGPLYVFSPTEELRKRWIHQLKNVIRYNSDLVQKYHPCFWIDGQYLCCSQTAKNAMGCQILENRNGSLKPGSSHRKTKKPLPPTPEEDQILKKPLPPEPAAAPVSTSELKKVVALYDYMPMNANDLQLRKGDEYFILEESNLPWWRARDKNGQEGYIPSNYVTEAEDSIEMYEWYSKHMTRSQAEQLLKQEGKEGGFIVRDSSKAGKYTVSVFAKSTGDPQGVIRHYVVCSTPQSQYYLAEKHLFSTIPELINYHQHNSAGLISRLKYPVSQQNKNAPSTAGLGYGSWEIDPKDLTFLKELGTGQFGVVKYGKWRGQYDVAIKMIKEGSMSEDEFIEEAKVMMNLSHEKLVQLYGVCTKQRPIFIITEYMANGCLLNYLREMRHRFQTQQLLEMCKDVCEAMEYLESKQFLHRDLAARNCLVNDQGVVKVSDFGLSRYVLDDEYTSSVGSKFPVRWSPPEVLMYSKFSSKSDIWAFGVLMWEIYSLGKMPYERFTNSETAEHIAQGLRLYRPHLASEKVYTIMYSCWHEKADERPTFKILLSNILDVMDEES

The IC50 is the concentration at which inhibition is half-maximal. A low value points to inhibition by little substance. For the compound `C=CC(=O)NCC(=O)Nc1cccc(Nc2ncc(NC(=O)c3cc(NC(=O)c4cccc(C(F)(F)F)c4)ccc3C)cn2)c1` [PLS-123], the IC50 is below 5 nM.
